From PubChem BioAssay AID2305 (GlaxoSmithKline (GSK), 2010)
Values joined by “and” are separate entries in the source; they are usually repeats but may differ in a detail not shown here. Equal values may be shown once.

tested on: P. falciparum 3D7 growth, pLDH absorbance; experiment: P. falciparum 3D7 growth inhibition, dose response, strain 3D7 (AID 2305)

Which IC50 does the source give for `Cc1ccc(C[C@H](C)NC[C@H](O)c2cccc(C(F)(F)F)c2)cc1` here?
The IC50 was 980 nM.

For `CCc1nc(N)nc(N)c1-c1ccc(C(C)(C)C)cc1`, which IC50 is on record?
Its IC50 is 230 nM.

With `CN(C)CCCNc1ccnc2cc(Cl)ccc12` as the compound, how does the IC50 read?
Its IC50 is 280 nM.

With `C(=NNc1ccnc2ccccc12)c1ccncc1` as the compound, how does the IC50 read?
The IC50 was 740 nM.

For `N#Cc1ccc(-c2cnc3ccc(NCc4ccc(S(N)(=O)=O)cc4)nn23)cc1`, which IC50 is on record?
The IC50 was 780 nM.

How did the IC50 turn out when `Cc1cccc2[nH]c(-c3ccc(-c4cccc(CNC(C)C)c4)s3)nc12` was run?
Its IC50 is 230 nM.

With `CCCCCCCN1CC[C@H](CC(=O)Nc2ccnc3ccc(OC)cc23)[C@@H](CC)C1` as the compound, how does the IC50 read?
The IC50 was 590 nM.

For `CC(C(=O)NC1CCN(c2ccnc(Nc3ccc(F)cc3)n2)C1)c1ccc(Cl)cc1` (stereo not given), which IC50 is on record?
Its IC50 is 860 nM.

For `CCC1(CC)N=C(N)N=C(N)C1c1ccc(Cl)c(Cl)c1` (stereo not given), which IC50 is on record?
The IC50 was 380 nM.

How did the IC50 turn out when `O=C(/C=C/c1ccc(C(F)(F)F)cc1)NCCCCCN1CCN(C(=O)Nc2ccc(F)c(Cl)c2)CC1` was run?
Its IC50 is 1210 nM.

`CNC(=O)c1cnc(Nc2ccc(OCC(O)CN(C)C)cc2)nc1Nc1cccc([N+](=O)[O-])c1` (stereo not given) was tested. Which IC50 did it give?
Its IC50 is 620 nM.

How did the IC50 turn out when `O=C(NC1CC1)c1ccc(Cn2c(SCc3cccc([N+](=O)[O-])c3)nc3ccccc3c2=O)cc1` was run?
Its IC50 is 760 nM.

For `CC(C)(C)c1ccc(NC(=O)c2ccc(CN3CCCN(Cc4cccc(Cl)c4)CC3)cc2)cc1`, which IC50 is on record?
Its IC50 is 970 nM.

`O=C(/C=C/c1ccc(Cl)c(Cl)c1)N1CCC(CN2CCC(c3c(-c4ccc(F)cc4)[nH]c4ccccc34)CC2)CC1` was tested. Which IC50 did it give?
The IC50 was 170 nM.

For `Oc1ccccc1CCNCC1CCc2ccccc2C1` (stereo not given), which IC50 is on record?
Its IC50 is 690 nM.

`O=C(Nc1cc(Cl)c(Cl)cc1NC(=O)c1cccc(-c2ccccc2)c1O)c1cccc(-c2ccccc2)c1O` was tested. Which IC50 did it give?
The IC50 was 510 nM.

For `Cc1cccc2[nH]c(-c3cccc(-c4cccc(NC(=O)c5cncn5C)c4)c3)nc12`, which IC50 is on record?
Its IC50 is 170 nM.

With `CC1CCNc2ccc(Cc3cnc(N)nc3N)cc21` (stereo not given) as the compound, how does the IC50 read?
Its IC50 is 1040 nM.

How did the IC50 turn out when `O=[N+]([O-])c1ccc2nc(Nc3cccc(C(F)(F)F)c3)c(Nc3cccc(C(F)(F)F)c3)nc2c1` was run?
The IC50 was 480 nM.

How did the IC50 turn out when `COC(=O)CCCCCOc1cc(Cc2cnc(N)nc2N)cc(OC)c1OC` was run?
Its IC50 is 180 nM.

How did the IC50 turn out when `COc1cc(NC(=O)N2CCc3ccc(OCCN4CCCCC4)cc32)cc(C(F)(F)F)c1` was run?
Its IC50 is 270 nM.

Which IC50 does the source give for `CNCCNCc1cccc(-c2ccc(-c3nc4ccc(C(F)(F)F)cc4[nH]3)s2)c1` here?
The IC50 was 820 nM.

With `CCOC(=O)c1ccc(NC(=O)c2ccccc2C(=O)O)cc1` as the compound, how does the IC50 read?
Its IC50 is 920 nM.

How did the IC50 turn out when `CCC[C@@H]([C@@H](CC1CCC(C)CC1)C(=O)N[C@@H](CCCCNC(=O)c1ccccn1)C(=O)Nc1nccs1)N(O)C=O` (stereo not given in full) was run?
The IC50 was 50 nM.

`N#Cc1ccc2c(c1)CCN(CCC1CCC(NC(=O)c3ccc(-c4ccccn4)s3)CC1)CC2` (stereo not given) was tested. Which IC50 did it give?
Its IC50 is 1010 nM.

For `COc1cc2c(cc1OC)-c1cc(=Nc3c(C)cc(C)cc3C)n(C)c(=O)n1CC2`, which IC50 is on record?
The IC50 was 1110 nM.

`CCc1cn2c3c(cc(C(=O)N[C@@H](Cc4ccccc4)[C@H](O)CNC4CCC4)cc13)N(C)S(=O)(=O)CC2` was tested. Which IC50 did it give?
The IC50 was 100 nM.

Which IC50 does the source give for `CC1CN(Cc2cccc(F)c2)CCN1c1ccc(NC(=O)c2cccs2)cc1` (stereo not given) here?
The IC50 was 450 nM.

Which IC50 does the source give for `O=S(=O)(NC1=NCCC1)c1cccc(Nc2nc(C(F)(F)F)nc3ccccc23)c1` here?
Its IC50 is 950 nM.

`CC(C)CCn1c(Sc2ccc(C#N)c([N+](=O)[O-])c2)nnc1-c1cccc(Cl)c1` was tested. Which IC50 did it give?
The IC50 was 670 nM.

How did the IC50 turn out when `COc1cc2nc(N3CCC(CNC(=O)c4ccc(-c5ccc(O)cc5)cc4)CC3)nc(N)c2cc1OC` was run?
Its IC50 is 170 nM.

Which IC50 does the source give for `O=C(CCc1cccnc1)Nc1cccc(-c2ccc(-c3nc4ccc(C(F)(F)F)cc4[nH]3)cc2)c1` here?
The IC50 was 870 nM.

How did the IC50 turn out when `CCc1cc(Br)c2c(c1)C(NCCCNc1cc(=O)c3ccccc3[nH]1)CCN2` (stereo not given) was run?
The IC50 was 850 nM.

`c1ccc(CN2CCc3cc4nccc(N5CCNCC5)c4cc32)cc1` was tested. Which IC50 did it give?
Its IC50 is 400 nM.

For `Cc1cc(C)c(NC(=O)NC2CCN(CCCCCNC(=O)/C=C/c3ccc(Cl)c(Cl)c3)CC2)c(C)c1`, which IC50 is on record?
Its IC50 is 800 nM.

With `CCCCn1c(Sc2ccc(C#N)c([N+](=O)[O-])c2)nnc1-c1cccc(Cl)c1` as the compound, how does the IC50 read?
The IC50 was 760 nM.

`COc1cc2nc(Nc3ccc(N4CCOCC4)cc3)nc(N)c2cc1OC` was tested. Which IC50 did it give?
Its IC50 is 870 nM.

With `O=C(Nc1ccc(OC2CCN(Cc3ccc(F)cc3)CC2)c(Cl)c1)c1ccoc1` as the compound, how does the IC50 read?
Its IC50 is 1180 nM.

`COc1cc2c(Nc3ccc(NC(=O)c4ccccc4)cc3)ncnc2cc1OCCCN1CCOCC1` was tested. Which IC50 did it give?
The IC50 was 650 nM.

For `O=C(c1cc(C(=O)NCc2ccc(Cl)cc2)c(=O)n(Cc2ccc(Cl)cc2)c1)c1cc(F)ccc1O`, which IC50 is on record?
The IC50 was 950 nM.

How did the IC50 turn out when `Cn1nc(-c2ccc(S(=O)(=O)NC3CCC(CN4CCC(c5c[nH]c6ccccc56)CC4)CC3)s2)cc1C(F)(F)F` (stereo not given) was run?
The IC50 was 840 nM and 820 nM.

With `c1cncc(CCNCc2cccc(-c3ccc(-c4nc5ccccc5[nH]4)s3)c2)c1` as the compound, how does the IC50 read?
The IC50 was 200 nM.

`CCOC(=O)c1c[nH]c2c(ccc3ccccc32)c1=O` was tested. Which IC50 did it give?
The IC50 was 160 nM.

With `C/C=C1\CN2CC[C@H]1C[C@H]2[C@H](O)c1ccnc2ccc(O)cc12` as the compound, how does the IC50 read?
The IC50 was 600 nM.

How did the IC50 turn out when `Nc1ccc(-c2nc3ccc(Oc4ccc5nc(-c6ccc(N)cc6)[nH]c5c4)cc3[nH]2)cc1` was run?
The IC50 was 720 nM.

Which IC50 does the source give for `Cc1c(F)cc(C(=O)NC2CC2)cc1-c1ccc2c(cnn2S(=O)(=O)c2ccc(F)c(F)c2)c1` here?
Its IC50 is 270 nM.

How did the IC50 turn out when `COc1ccc2c(c1)ncn2-c1cc(OCc2ccncc2Br)c(C(N)=O)s1` was run?
Its IC50 is 610 nM.

How did the IC50 turn out when `CN1CCc2ccc(NC(=O)Nc3ccc(Cl)c(Cl)c3)cc2C1` was run?
Its IC50 is 720 nM.

Which IC50 does the source give for `CC(C)(C)c1nn(-c2ccccc2)c2[nH]c(=O)c(CNCc3ccccc3)cc12` here?
Its IC50 is 1050 nM.

For `NC(N)=NN=CC(=O)Nc1ccc(Cl)c(C(F)(F)F)c1`, which IC50 is on record?
Its IC50 is 890 nM.
